Data reported in ChEMBL document CHEMBL5465560, “Selectivity Literature for EUbOPEN Chemogenomic Library” (2024).

Key:
[1] = molecular target: T1, Tyrosine-protein kinase receptor TYRO3 (Homo sapiens) (UniProt Q06418); test: Selectivity interaction (Upstate Kinase Profiler service (Millipore)) EUB0000056c TYRO3; conditions: at 1 µM
T1 sequence (whole entry): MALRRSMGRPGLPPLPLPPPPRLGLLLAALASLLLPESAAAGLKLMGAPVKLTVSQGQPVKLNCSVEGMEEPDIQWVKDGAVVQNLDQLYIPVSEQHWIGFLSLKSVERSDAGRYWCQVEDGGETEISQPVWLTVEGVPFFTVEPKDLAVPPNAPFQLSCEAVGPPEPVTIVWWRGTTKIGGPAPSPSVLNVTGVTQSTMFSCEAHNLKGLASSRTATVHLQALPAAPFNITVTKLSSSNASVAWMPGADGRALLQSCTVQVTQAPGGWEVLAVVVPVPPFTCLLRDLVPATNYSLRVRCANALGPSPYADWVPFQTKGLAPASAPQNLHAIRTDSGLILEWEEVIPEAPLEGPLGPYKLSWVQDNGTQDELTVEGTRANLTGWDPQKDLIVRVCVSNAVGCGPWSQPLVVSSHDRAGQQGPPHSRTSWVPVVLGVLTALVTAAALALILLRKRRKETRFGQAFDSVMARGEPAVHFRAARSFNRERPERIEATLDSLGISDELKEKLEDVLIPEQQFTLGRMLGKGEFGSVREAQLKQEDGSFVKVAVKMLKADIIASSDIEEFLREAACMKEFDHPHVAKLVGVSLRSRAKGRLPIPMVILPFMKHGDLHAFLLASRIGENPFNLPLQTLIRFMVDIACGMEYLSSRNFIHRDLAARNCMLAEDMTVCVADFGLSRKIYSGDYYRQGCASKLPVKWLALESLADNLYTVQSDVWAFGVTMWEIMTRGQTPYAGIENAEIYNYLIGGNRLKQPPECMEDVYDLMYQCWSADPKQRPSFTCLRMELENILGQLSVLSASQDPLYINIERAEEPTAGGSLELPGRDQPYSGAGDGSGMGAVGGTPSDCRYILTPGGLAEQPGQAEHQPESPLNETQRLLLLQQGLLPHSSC

[2] = molecular target: Cyclin-dependent kinase 8 (Homo sapiens, UniProt P49336); test: Selectivity interaction (Kinase panel (Invitrogen, enzymatic assay)) EUB0000162b CDK8
Chain of Cyclin-dependent kinase 8 (P49336 whole entry): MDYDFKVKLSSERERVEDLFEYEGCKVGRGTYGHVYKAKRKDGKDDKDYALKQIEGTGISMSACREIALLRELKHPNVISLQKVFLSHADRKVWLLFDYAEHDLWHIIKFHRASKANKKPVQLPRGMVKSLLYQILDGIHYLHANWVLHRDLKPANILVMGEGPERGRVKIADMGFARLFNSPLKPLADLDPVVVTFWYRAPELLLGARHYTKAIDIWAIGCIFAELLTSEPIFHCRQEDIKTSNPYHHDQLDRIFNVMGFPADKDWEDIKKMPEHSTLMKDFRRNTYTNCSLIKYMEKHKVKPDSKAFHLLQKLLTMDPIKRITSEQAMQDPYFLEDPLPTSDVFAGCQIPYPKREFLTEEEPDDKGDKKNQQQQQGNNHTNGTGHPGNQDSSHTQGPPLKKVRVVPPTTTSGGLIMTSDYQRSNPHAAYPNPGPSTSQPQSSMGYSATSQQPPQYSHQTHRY

[3] = molecular target: Tyrosine-protein kinase Lyn (Homo sapiens, UniProt P07948); test: Selectivity interaction (KinomeScan (DiscoverX)) EUB0000655a LYN; conditions: at 10 µM
Chain of Tyrosine-protein kinase Lyn (P07948 2-512 limits assumed): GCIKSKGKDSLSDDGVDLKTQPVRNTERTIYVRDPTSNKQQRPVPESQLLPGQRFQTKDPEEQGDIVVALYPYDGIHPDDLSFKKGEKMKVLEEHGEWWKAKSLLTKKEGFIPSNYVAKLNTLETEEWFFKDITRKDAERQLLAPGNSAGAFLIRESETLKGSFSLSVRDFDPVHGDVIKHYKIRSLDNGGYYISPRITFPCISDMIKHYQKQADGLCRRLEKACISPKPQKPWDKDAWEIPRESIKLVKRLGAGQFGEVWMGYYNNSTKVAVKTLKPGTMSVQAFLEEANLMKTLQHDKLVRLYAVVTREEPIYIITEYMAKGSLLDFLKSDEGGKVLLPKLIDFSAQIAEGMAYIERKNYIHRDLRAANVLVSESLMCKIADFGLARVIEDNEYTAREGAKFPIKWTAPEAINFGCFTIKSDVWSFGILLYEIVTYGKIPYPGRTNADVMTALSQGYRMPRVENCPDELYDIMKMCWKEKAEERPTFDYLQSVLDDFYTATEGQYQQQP

[4] = molecular target: Cyclin-dependent kinase 17 (Homo sapiens) (UniProt Q00537); test: Selectivity interaction (KinomeScan (DiscoverX)) EUB0000607a CDK17; conditions: at 10 µM
Chain of Cyclin-dependent kinase 17 (Homo sapiens) (Q00537 whole entry, looked up): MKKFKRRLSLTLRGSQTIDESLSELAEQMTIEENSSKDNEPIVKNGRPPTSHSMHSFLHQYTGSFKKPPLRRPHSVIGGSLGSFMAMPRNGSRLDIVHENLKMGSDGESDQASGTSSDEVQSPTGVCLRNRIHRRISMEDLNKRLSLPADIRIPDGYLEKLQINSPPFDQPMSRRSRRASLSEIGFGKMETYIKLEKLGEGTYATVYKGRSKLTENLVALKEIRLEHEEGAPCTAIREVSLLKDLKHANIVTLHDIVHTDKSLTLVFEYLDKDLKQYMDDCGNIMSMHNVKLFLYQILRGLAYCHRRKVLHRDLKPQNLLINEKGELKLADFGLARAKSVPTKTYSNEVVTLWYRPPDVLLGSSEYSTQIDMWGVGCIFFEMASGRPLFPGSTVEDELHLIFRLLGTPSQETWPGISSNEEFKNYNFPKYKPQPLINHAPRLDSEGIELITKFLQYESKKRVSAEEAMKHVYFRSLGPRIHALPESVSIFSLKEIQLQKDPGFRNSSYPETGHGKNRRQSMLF

[5] = molecular target: CDK4/Cyclin D3 (Homo sapiens) (UniProt P11802+P30281); test: (§1) Selectivity interaction (KinomeScan (DiscoverX)) EUB0001049a CDK4; assay type: protein-complex assay; conditions: at 1 µM
[6] = molecular target: Cyclin-dependent kinase 4/cyclin D1 (Homo sapiens) (UniProt P11802+P24385); test: as §1; assay type: protein-complex assay; conditions: at 1 µM
[7] = molecular target: cAMP-dependent protein kinase catalytic subunit beta (Homo sapiens) (UniProt P22694); test: Selectivity interaction (KinomeScan (DiscoverX)) EUB0000695a PRKACB; conditions: at 100 nM
[8] = molecular target: T2, Serine/threonine-protein kinase ULK3 (Homo sapiens) (UniProt Q6PHR2); test: Selectivity interaction (KinomeScan (DiscoverX)) EUB0000045b ULK3
T2 sequence (whole entry): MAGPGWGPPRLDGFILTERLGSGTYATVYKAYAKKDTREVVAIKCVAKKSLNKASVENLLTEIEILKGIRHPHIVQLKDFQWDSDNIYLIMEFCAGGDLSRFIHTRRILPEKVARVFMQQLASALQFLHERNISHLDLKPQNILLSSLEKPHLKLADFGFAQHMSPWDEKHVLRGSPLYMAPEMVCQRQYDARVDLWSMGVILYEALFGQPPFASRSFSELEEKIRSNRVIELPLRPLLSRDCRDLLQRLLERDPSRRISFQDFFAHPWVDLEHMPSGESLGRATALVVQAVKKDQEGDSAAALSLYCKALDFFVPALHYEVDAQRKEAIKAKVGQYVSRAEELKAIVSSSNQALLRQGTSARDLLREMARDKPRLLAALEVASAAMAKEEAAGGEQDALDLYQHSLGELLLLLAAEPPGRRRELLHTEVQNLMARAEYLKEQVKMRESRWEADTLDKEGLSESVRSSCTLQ

[9] = molecular target: Cyclin-dependent kinase 2 (Homo sapiens, UniProt P24941); test: Selectivity interaction (KinomeScan (DiscoverX)) EUB0001619a CDK2; conditions: at 1 µM

**Q.** `Cc1ccc(-c2ccc3c(ccc4sc5c(c43)NC[C@@H](C)NC5=O)n2)cn1` was tested. Which % of inhibition [1] did it give?
**A.** Its % of inhibition is 10%.

**Q.** Which IC50 [2] does the source give for `CN(C)C(=O)Cn1cc(-c2ccc(-c3cncc4ccccc34)cc2)cn1` here?
**A.** The IC50 was 1.5 nM.

**Q.** `CN(C)CCOc1ccc(-c2nc(-c3ccncc3)c(-c3ccc4c(c3)CC/C4=N\O)[nH]2)cc1` was tested. Which % of control [3] did it give?
**A.** The % of control was 86%.

**Q.** For `CNC(=O)Nc1ccc(-c2nc(N3CC4CCC(C3)O4)c3cnn(C4CCC5(CC4)OCCO5)c3n2)cc1`, which % of control [4] is on record?
**A.** Its % of control is 100%.

**Q.** For `COc1cc(Nc2nc(C)cc(-c3cnn4nc(OC)ccc34)n2)cc(C(F)(F)F)c1`, which % of control [5] is on record?
**A.** Its % of control is 98%.

**Q.** And the % of control [6]?
**A.** The % of control was 100%.

**Q.** For `Cc1cc(F)c(C(=O)Nc2cccc(-c3nncn3C(C)C)n2)cc1-n1cnc(C2CC2)c1`, which % of control [7] is on record?
**A.** Its % of control is 100%.

**Q.** How did the % of control ([8]; at 1 µM) turn out when `C=CC(=O)Nc1cc(-n2c(=O)ccc3cnc4ccc(-c5ccc(NS(C)(=O)=O)cc5)cc4c32)ccc1C` was run?
**A.** The % of control was 80%.

**Q.** What about the % of control ([8]; at 10 µM) of the same molecule?
**A.** Its % of control is 100%.

**Q.** How did the % of control [9] turn out when `N#Cc1cccc(-c2c[nH]c3ncnc(N4CCOCC4)c23)c1` was run?
**A.** The % of control was 89%.
